Patent US11090364B2, “Conjugates of a pharmaceutical agent and a moiety capable of binding to a glucose sensing protein” (SANOFI, priority 2016, dated 2021)
Read-outs that look alike come from different tables or passages of the source.

System: A2780 Human Carcinoma Cells
Assay: Glucose displacement assay (ATP measurement, CellTiter-Glo)
Type: cell-based
Protocol: 2. Glucose Displacement Assay (ATP Measurement)
30.000 A2780 Human Carcinoma Cells are seeded per well in a Greiner 96-well plate. Cells are expanded and cultured in RPMI 1640 medium+GlutaMAX® with 10% FCS and 11 mM glucose, at 37° C. with 5% CO2. After 44 h, culture media is changed and washed once with PBS to starvation media consisting of RPMI 1640 medium with 1% FCS without glucose for 2 hours. Cells are then washed with KRB buffer, followed incubation for 20 min at 37° C. of the treatment mix consisting of: 60 μL KRB buffer/well with 10 μL of compound or DMSO 10×. 10 μl of rotenone is added to the mix to a final concentration of 0.5 μM. Cell plates are left for 2 min at room temperature. 20 μL of different glucose concentrations are added to the mix—typically 0.1 to 20 mM range -. Cells are incubated for another 15 min at 37° C., before measuring ATP with the CellTiter-Glo® Assay, under manufacturer's guidance, but without the equilibration step at room temperature for 30 min. In brief, 100 μl of Cell-Titer-Glo® Reagent is added to the wells containing already 100 μl of the previous reaction mix. Plates are mixed for 2 min at 800 rpm, followed by incubation at room temperature for 10 min to stabilize the luminescent signal. Luminescence is then recorded with the Tekan Ultra Evolution reader.

Q: With “6-Desoxy-6-(3-undecenyloxypheny)-4-piperazin-1-yl-D-galactopyranose [Example 141]” as the compound, how does the IC50 (read-out: IC50) read?
A: 84.8 µM

Q: How did the IC50 (Homo sapiens, 10 mM Gluc, read-out: IC50 @ 10 mM Gluc) turn out when `COc1cc(C(=O)OC[C@H]2OC(O)[C@H](O)[C@@H](O)[C@@H]2O)cc(Cl)c1Oc1ccccc1` (some centres unmarked) [Example 138] was run?
A: > 100 µM

Q: And the IC50 (Homo sapiens, read-out: IC50)?
A: 8.37 µM

Q: For “Methyl-2-O-(3-chloro-3′-methoxy-4-phenoxyphenylcarbonyl)-α-D-glucopyranoside [Example 124]”, which IC50 (10 mM Gluc, read-out: IC50 @ 10 mM Gluc) is on record?
A: > 100 µM

Q: And the IC50 (read-out: IC50)?
A: 33.2 µM
